Assay results published in patent US20230381774A1, “MICROFLUDIC LAB-ON-CHIP DEVICE, MATRIX, SMALL MOLECULES AND THREE-DIMENSIONAL SPHEROIDS FOR CELL REPROGRAMMING” (The Regents of the University of California, priority 2022, published 2023).

Legend:
Format in all cases: cell-based, mouse
[1] = system: 5-methylcytosine (5-mC); assay: Global DNA methylation (5-mC) assay; settings: non-transduced fibroblasts, 24 hours, vs control
Method: DNA was isolated from non-transduced fibroblasts treated with vehicle control (DMSO), 10 μM blebbistatin and 5 μM PF573228, respectively, for 24 hours using the PureLink Genomic DNA mini kit (Invitrogen) according to the manufacturer's instructions. To detect global DNA methylation (5-mC) levels in the samples, we utilized the MethylFlash Global DNA Methylation (5-mC) ELISA Easy kit (Epigentek) according to the manufacturer's protocol. 100 ng of DNA sample was utilized per reaction and after adding the color developer solution, the absorbance was measured using a plate reader (Infinite […], 30050303) at 450 nm.

[2] = system: neuronal genes; assay: qRT-PCR of neuronal gene expression; settings: for neuronal gene expression at day 5: blebbistatin or 5 μM PF573228, vs non-treated transduced cells
Method: RNA was isolated from samples using Trizol® (Ambion) according to the manufacturer's instructions. For cDNA synthesis, 500 ng of RNA was reverse transcribed using Maxima First Strand cDNA Synthesis Kit (ThermoFisher Scientific). Template DNA was amplified using Maxima SYBR Green/Fluorescein qPCR Master Mix (ThermoFisher Scientific) on a CFX qPCR machine (Bio-Rad). qRT-PCR data were analyzed using CFX Manager 3.1 (Bio-Rad) and gene expression levels were normalized to 18S.

[3] = system: histone acetyltransferase (HAT); assay: HAT activity assay on nuclear extracts of treated fibroblasts; settings: 10 μM blebbistatin or 5 μM PF573228, 2 hours, vs DMSO
Method: (§1) Nuclear protein extractions were isolated from 5×10^5 fibroblasts treated with vehicle control (DMSO), 10 μM blebbistatin or 5 μM PF573228 for 2 hours using a nuclear extraction kit (EpiGentek, OP-0002), in accordance with the manufacturer's instructions. HAT, HDAC, H3K4 HMT, H3K4 HDM and DNMT activity were measured using the HAT activity/inhibition assay (EpiGentek, P-4003-048), HDAC activity/inhibition assay (EpiGentek, P-4034-096), Histone methyltransferase (H3K4 specific) activity/inhibition assay (EpiGentek, P-3002-1), Histone Demethylase (H3K4 specific) activity/inhibition assay (EpiGentek, P-3074-48), and DNMT activity/inhibition assay (EpiGentek, P-3009-048), respectively. Per the manufacturer's instructions, 20 μg of nuclear extract was added into the assay wells and incubated at 37° C. for 90 minutes. After adding the color developer solution, the absorbance was measured using a plate reader (Infinite […], 30050303) at 450 nm for all the assays with the exception of the Histone Demethylase (H3K4 specific) activity/inhibition assay where we measured the fluorescence using a fluorescence microplate reader at 530 EX/590 EM nm.

[4] = system: promoter regions of Ascl1, Brn2, Myt1l and TUBB3; assay: ChIP-qPCR of histone modifications at neuronal gene promoters; settings: BAM-transduced fibroblasts, day 3, relative to DMSO
Method: Halt™ Protease and Phosphatase Inhibitor Cocktail (ThermoFisher Scientific, 78442) was added to Cell Lysis (10 mM Tris-HCl pH 8.0, 85 mM KCl, 0.5% NP-40), Nuclei Lysis (10 mM Tris-HCl pH 7.5, 1% NP-40, 0.5% sodium deoxycholate, 0.1% SDS), and ChIP Dilution (0.01% SDS, 1.1% Triton X-100, 1.2 mM EDTA, 16.7 mM Tris-HCL pH 8.1, 167 mM NaCl) Buffers.
Three days post-Dox addition, 4×10^6 BAM-transduced fibroblasts cultured in the absence and presence of 10 μM blebbistatin and 5 μM PF573228, respectively, for 2 days were fixed using 1% formaldehyde in PBS (Fisher Scientific, BP531) for 10 minutes. 125 mM Glycine was added for 5 minutes to quench excess formaldehyde, followed by 2 washes with cold 1×PBS. Cells were scraped and collected into microcentrifuge tubes and centrifuged at 800 g at 4° C. for 5 minutes. Upon removing the supernatant, cell pellets were snap-frozen in liquid nitrogen and stored at −80° C. The cells were then resuspended and lysed in Cell Lysis Buffer and resuspended in Nuclei Lysis Buffer prior to sonication using a Branson SFX250 Sonifier at 40% amplitude, 0.7 seconds on and 1.3 seconds off, for a total of 8 minutes. […]
50 μL ChIP Elution Buffer was added to the stored internal controls from the post-sonication step. […] ChIP-qPCR data were analyzed by normalizing the DNA concentration to percent input using the relative standard curve method.

[5] = system: H3K4-specific histone methyltransferase (HMT); assay: H3K4 HMT activity assay on nuclear extracts of treated fibroblasts; settings: 10 μM blebbistatin or 5 μM PF573228, 2 hours, vs DMSO
Method: as §1

| HAT activity [3] | H3K4-specific HMT activity [5] | SMILES | DNA methylation (5-mC) [1] | neuronal gene expression at day 5 ([2]; BAM-transduced fibroblasts) | histone modifications at promoter regions of Ascl1, Brn2, Myt1l and TUBB3 [4] | endogenous Brn2 and Myt1l expression ([2]; Ascl1-transduced fibroblasts) | expression of several neuronal genes including NeuroD1 ([2]; Ascl1-transduced fibroblasts) | Ascl1 expression at day 3 ([2]; BAM-transduced fibroblasts) | Brn2 and Myt1l expression at day 3 ([2]; BAM-transduced fibroblasts) |
| --- | --- | --- | --- | --- | --- | --- | --- | --- | --- |
| differences | differences | CS(=O)(=O)c1cccc(CNc2nc(Nc3ccc4c(c3)CCC(=O)N4)ncc2C(F)(F)F)c1 [PF573228] | lower levels of DNA methylation | greater | significant increases in AcH3, H3K3me3 and H3K4me1 at the promoter regions |  |  |  |  |
| increased | increased | Cc1ccc2c(c1)C(=O)C1(O)CCN(c3ccccc3)C1=N2 (centres unmarked) [blebbistatin] | a decrease in the abundance of DNA methylation marker, 5-methylcytosine (5-mC) | significantly increased | significant increases in AcH3, H3K4me3 and H3K4me1 at all four promoter regions | upregulated the expression of endogenous Brn2 and Myt1l | higher | upregulated | did not show such a drastic increase in the expression level |
